Data reported in patent US20150104466A1, “CYTOMEGALOVIRUS DISINTEGRIN-LIKE PEPTIDES” (priority 2013, published 2015).

Key:
HCMV strain AD169 = experiment: Virus entry assay: HCMV infectivity by IE gene expression (immunofluorescence); format: cell-based, Human cytomegalovirus; details: NHDFs treated with peptide or antibody prior to HCMV challenge
Experimental: (§1) For CMV entry assays, subconfluent cells were grown on glass coverslips in 12-well plates. Integrin neutralizing antibodies or peptides were incubated in serum-free DMEM with cell monolayer for 30 minutes at 37° C. Cells were washed with phosphate-buffered saline (PBS) and incubated with HCMV strain AD169, MCMV Smith strain, or MCMV-GFP for 60 minutes at 37° C. Any non-penetrated virus was inactivated with low-pH citrate buffer (40 mM citric acid, 10 mM KCl, 135 mM NaCl, pH 3.0). The cells were incubated 20-24 hours at 37° C. in DMEM supplemented with 2% bovine calf serum (BCS). […] Experiments were performed in triplicate with a minimum of 1000 cells scored per coverslip. […] Cells were incubated 6 hours at 37° C. in DMEM supplemented with 10% BCS prior to lysis (100 mM sodium phosphate, 10 mM KCl, 1 mM magnesium sulfate, 0.1% NP-40, pH 7.4). β-galactosidase activity was measured by addition of o-nitrophenyl-β-D-galactopyranoside (ONPG) and the absorbance was monitored at 420 nm.
FIG. 2A presents the results of a series of assays wherein NHDFs were treated with HCMV gB disintegrin-like peptide, gB disintegrin-like Null peptide, RGD, or RGE peptide prior to HCMV challenge (as indicated in the FIG. 2A). Infectivity was determined by IE gene expression. […]

NHDF cells = experiment: Cytoskeletal rearrangement in NHDF cells (actin staining with phalloidin); format: cell-based, human; details: compared to buffer alone
Source text: gBDLD Triggers Cytoskeletal Rearrangements: β1 integrins are known inducers of broad signal transduction events. […] To test the role of gBDLD in mediating signaling events, we stimulated NHDF cells with buffer alone, gBDLD, or a known cytoskeletal reorganizer (EGF), followed by actin staining with phalloidin.

MCMV = experiment: Virus entry assay: MCMV infectivity (e1-positive cells); format: cell-based, Murine cytomegalovirus; details: mouse fibroblasts (murine 3T3) treated with peptide, then MCMV challenge
Experimental: as §1
FIG. 4B is a histogram showing the results of an assay wherein GD25, GD25β1 and 3T3 cells were treated with β1, β3, and β1+β3 antibodies, followed by MCMV infection. As described above, infectivity was determined by scoring e1-(early protein) positive cells. […]

HSV-1(KOS)gL86 = experiment: HSV entry assay (β-galactosidase activity); format: cell-based, herpes simplex virus-1; details: cells treated with peptide, then HSV-1 challenge
Experimental: For CMV entry assays, subconfluent cells were grown on glass coverslips in 12-well plates. Integrin neutralizing antibodies or peptides were incubated in serum-free DMEM with cell monolayer for 30 minutes at 37° C. Cells were washed with phosphate-buffered saline (PBS) and incubated with HCMV strain AD169, MCMV Smith strain, or MCMV-GFP for 60 minutes at 37° C. Any non-penetrated virus was inactivated with low-pH citrate buffer (40 mM citric acid, 10 mM KCl, 135 mM NaCl, pH 3.0). The cells were incubated 20-24 hours at 37° C. in DMEM supplemented with 2% bovine calf serum (BCS). Immunofluorescence analysis was performed as previously described^28 with either mouse anti-IE monoclonal antibody 1203, mouse anti-pp65 monoclonal antibody or rabbit anti-MCMV el polyclonal, followed by detection with a fluorescein-conjugated goat anti-mouse secondary or a fluorescein-conjugated goat anti-rabbit secondary antibody. Nuclei were stained with 300 nM 4′,6-diamidino-2-phenylindole (DAPI). Experiments were performed in triplicate with a minimum of 1000 cells scored per coverslip. […] Cells were incubated 6 hours at 37° C. in DMEM supplemented with 10% BCS prior to lysis (100 mM sodium phosphate, 10 mM KCl, 1 mM magnesium sulfate, 0.1% NP-40, pH 7.4). β-galactosidase activity was measured by addition of o-nitrophenyl-β-D-galactopyranoside (ONPG) and the absorbance was monitored at 420 nm.

HCMV AD 169 = experiment: Virus binding assay: HCMV attachment to NHDF cells at 4° C. (gB ELISA); format: cell-based, Human cytomegalovirus; details: 1 mM peptide, 1:50 DE9, α2 and α6 antibodies 20 μg/mL
Experimental: NHDF cells were grown in 96-well plates and treated with integrin-neutralizing antibodies, peptides, or heparin for 60 minutes at 4° C. Cells were then challenged with HCMV AD 169 at a multiplicity of infection (MOI) of 5 pfu/cell for 60 minutes at 4° C. Unbound virus was removed and cells were washed and fixed with 3% paraformaldehyde. Bound HCMV was detected with monoclonal antibody 27-78, horseradish peroxidase (HRP)-conjugated goat anti-mouse secondary antibody, and ImmunoPure TMB Substrate Kit (Pierce, Rockford, Ill.). Absorbance was measured at 450 nm. All experiments were performed in triplicate.
During virus infection, integrins are utilized as primary viral attachment receptors or as post-attachment (fusion-activating) or internalization receptors.^11 To determine at which step in the HCMV entry pathway integrins are functioning, cell binding (i.e., attachment) experiments were performed, as well as assays to measure viral payload delivery into the cytoplasm (internalization). For the binding assays, virus was bound at 4° C. to allow for stable virus binding, but to restrict fusion and internalization. The results are depicted in FIG. 6A. […] Attachment was measured by gB ELISA.

HCMV = experiment: Viral payload delivery: pp65 localization in fibroblasts after HCMV infection; format: cell-based, Human cytomegalovirus; details: human fibroblasts treated, then infected with HCMV
Experimental: as §1
Next, an assay was performed that directly measured delivery of an internal virion component. […] FIG. 6B is a histogram showing the results of a series of assays wherein human fibroblasts were treated with various integrin-blocking agents, infected with HCMV, and then assayed for viral payload as measured by pp65 localization. […]

Substance	inhibition of HCMV infectivity compared to infectivity seen with no treatment (HCMV strain AD169)	reorganization of the cytoskeleton (NHDF cells)	MCMV infectivity after peptide treatment (MCMV)	ability of HSV-1 to infect cells after peptide treatment (HSV-1(KOS)gL86)	HCMV attachment (binding) to host cells (HCMV AD 169)	uptake of pp65 tegument protein (HCMV)
AVCSMAGGTAAIRAERNIIC (listed as Human cytomegalovirus) [gB disintegrin-like null peptide, null peptide containing alanine substitutions in the disintegrin-like consensus residues, reference compound]	HCMV was able to infect	–	–	–	–	–
EGF: a known cytoskeletal reorganizer [reference compound]	–	triggered a dramatic reorganization of the cytoskeleton	–	–	–	–
RVCSMAQGTDLIRFERNIIC (listed as Human cytomegalovirus) [gB disintegrin-like peptide, 20 amino acid synthetic peptide encompassing the HCMV gB disintegrin-like domain]	dose-dependent inhibitory response to infection	–	dramatic reduction in MCMV infectivity	no effect	no effect on HCMV attachment	little uptake of the pp65 tegument protein
